From the supplement of paper PMC10307832

Experiments:
Test in all cases: relative viability (nuclei count vs DMSO), 5 days (fraction); higher = more cells survive
Sorafenib + Olaparib = compound: CNC(=O)c1cc(Oc2ccc(NC(=O)Nc3ccc(Cl)c(C(F)(F)F)c3)cc2)ccn1 [Sorafenib] + O=C(c1cc(Cc2n[nH]c(=O)c3ccccc23)ccc1F)N1CCN(C(=O)C2CC2)CC1 [Olaparib] (partner 8 µM)
In short: (§1)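 Lung cancer cell lines in 1536-well plates got either a single drug or a fixed anchor-drug dose together with five library-drug doses (not always all listed) in √10 steps, by pin tool, on the day after seeding. Nuclei were counted after 5 days, and relative viability is the treated-to-vehicle ratio of nuclei counts. Values are medians of duplicate plates.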

Sorafenib + Trametinib = compound: CNC(=O)c1cc(Oc2ccc(NC(=O)Nc3ccc(Cl)c(C(F)(F)F)c3)cc2)ccn1 [Sorafenib] + CC(=O)Nc1cccc(-n2c(=O)n(C3CC3)c(=O)c3c(Nc4ccc(I)cc4F)n(C)c(=O)c(C)c32)c1 [Trametinib] (partner 0.02 µM)
In short: as §1

Sorafenib + Alpelisib = compound: CNC(=O)c1cc(Oc2ccc(NC(=O)Nc3ccc(Cl)c(C(F)(F)F)c3)cc2)ccn1 [Sorafenib] + Cc1nc(NC(=O)N2CCC[C@H]2C(N)=O)sc1-c1ccnc(C(C)(C)C(F)(F)F)c1 [Alpelisib] (partner 2 µM)
In short: as §1

Sorafenib + Phenformin = compound: CNC(=O)c1cc(Oc2ccc(NC(=O)Nc3ccc(Cl)c(C(F)(F)F)c3)cc2)ccn1 [Sorafenib] + N=C(N)NC(=N)NCCc1ccccc1 [Phenformin] (partner 250 µM)
In short: as §1

Sorafenib + Tozasertib = compound: CNC(=O)c1cc(Oc2ccc(NC(=O)Nc3ccc(Cl)c(C(F)(F)F)c3)cc2)ccn1 [Sorafenib] + Cc1cc(Nc2cc(N3CCN(C)CC3)nc(Sc3ccc(NC(=O)C4CC4)cc3)n2)n[nH]1 [Tozasertib] (partner 0.1 µM)
In short: as §1

Cell Line	relative viability (Sorafenib + Olaparib; first compound 0.08 µM)	relative viability (Sorafenib + Olaparib; first compound 0.253 µM)	relative viability (Sorafenib + Olaparib; first compound 2.53 µM)	relative viability (Sorafenib + Olaparib; first compound 8 µM)	relative viability (Sorafenib + Trametinib; first compound 0.08 µM)	relative viability (Sorafenib + Trametinib; first compound 0.253 µM)	relative viability (Sorafenib + Trametinib; first compound 2.53 µM)	relative viability (Sorafenib + Trametinib; first compound 8 µM)	relative viability (Sorafenib + Alpelisib; first compound 0.08 µM)	relative viability (Sorafenib + Alpelisib; first compound 0.253 µM)	relative viability (Sorafenib + Alpelisib; first compound 2.53 µM)	relative viability (Sorafenib + Alpelisib; first compound 8 µM)	relative viability (Sorafenib + Phenformin; first compound 0.08 µM)	relative viability (Sorafenib + Phenformin; first compound 0.253 µM)	relative viability (Sorafenib + Phenformin; first compound 2.53 µM)	relative viability (Sorafenib + Phenformin; first compound 8 µM)	relative viability (Sorafenib + Tozasertib; first compound 0.08 µM)	relative viability (Sorafenib + Tozasertib; first compound 0.253 µM)	relative viability (Sorafenib + Tozasertib; first compound 2.53 µM)	relative viability (Sorafenib + Tozasertib; first compound 8 µM)
LCLC-103H	0.796	0.734	0.831	0.832	0.68	0.731	0.691	0.674	1.06	0.991	0.893	1.18	0.401	0.309	0.336	0.344	0.489	0.548	0.419	0.569
EKVX	0.91	0.76	0.796	0.682	0.36	0.349	0.317	0.219	1.09	0.886	0.872	0.828	0.243	0.24	0.24	0.201	0.382	0.419	0.467	0.212
LXF-289	1.03	1.04	1.01	0.96	0.638	–	0.617	0.513	1.09	1.04	1.05	1.02	0.553	0.513	0.541	0.476	0.178	0.184	0.177	0.174
HCC-827	0.621	0.623	0.572	0.464	0.547	0.582	0.457	0.422	1.07	–	0.988	0.826	0.447	0.399	0.447	0.424	0.423	0.471	0.421	0.45
NCI-H1666	0.785	0.765	0.721	–	0.954	0.764	0.762	0.639	0.849	0.93	0.782	0.537	0.562	0.546	0.544	0.452	0.681	0.641	0.581	0.503
NCI-H441	0.593	0.5	0.455	0.308	0.564	0.408	0.457	0.27	0.683	0.522	0.5	0.538	0.976	–	0.745	0.412	0.644	–	0.542	0.386
HCC-15	0.701	0.641	0.575	0.442	0.411	0.354	0.396	0.3	0.86	0.932	0.955	0.575	0.501	0.403	0.442	0.212	0.443	0.438	0.372	0.179
NCI-H520	0.356	0.281	0.313	0.126	0.934	0.403	0.518	0.217	0.963	0.89	0.902	0.526	0.673	0.316	0.574	0.253	0.517	0.436	0.432	0.331
HCC-78	0.891	0.953	0.909	0.819	0.807	0.646	0.897	0.523	0.373	0.297	0.367	0.423	0.812	0.598	–	0.713	0.391	0.371	0.492	0.493
H3255	0.574	0.532	0.536	0.438	0.619	0.563	0.463	0.364	0.851	0.639	0.802	0.552	1.02	0.357	0.406	–	0.588	0.458	0.72	0.482
NCI-H460	0.399	0.335	0.345	0.324	0.225	0.154	0.126	0.0388	0.594	0.643	0.566	0.103	0.528	0.495	0.462	0.046	0.514	0.386	0.414	0.0751
PC-3 [JPC-3]	1.18	1.12	1.18	0.944	–	0.712	0.773	0.718	1.07	0.987	1.08	1.12	0.512	0.458	0.492	0.453	0.879	0.846	0.881	0.823
NCI-H2170	0.63	0.577	0.556	0.365	0.896	0.805	0.99	0.804	0.792	0.843	0.865	0.754	0.403	0.437	0.43	0.361	0.767	0.714	0.726	0.694
NCI-H2405	0.891	0.852	0.887	0.807	0.784	0.461	0.413	0.324	1	0.857	0.627	0.423	0.421	0.334	0.405	0.259	0.819	0.743	0.751	0.613
NCI-H650	0.377	0.312	0.295	0.227	0.989	0.937	0.866	0.578	1.31	0.96	0.952	0.963	0.45	0.399	0.461	0.428	0.718	0.659	0.62	0.592
201T	0.812	0.88	0.877	0.843	0.679	0.726	0.735	0.762	1	1.05	1.13	–	–	0.423	0.42	0.432	0.964	0.925	0.955	0.827

Cell Line	relative viability (Sorafenib + Olaparib; first compound 0.08 µM)	relative viability (Sorafenib + Olaparib; first compound 0.253 µM)	relative viability (Sorafenib + Olaparib; first compound 2.53 µM)	relative viability (Sorafenib + Olaparib; first compound 8 µM)	relative viability (Sorafenib + Trametinib; first compound 0.08 µM)	relative viability (Sorafenib + Trametinib; first compound 0.253 µM)	relative viability (Sorafenib + Trametinib; first compound 2.53 µM)	relative viability (Sorafenib + Trametinib; first compound 8 µM)	relative viability (Sorafenib + Alpelisib; first compound 0.08 µM)	relative viability (Sorafenib + Alpelisib; first compound 0.253 µM)	relative viability (Sorafenib + Alpelisib; first compound 2.53 µM)	relative viability (Sorafenib + Alpelisib; first compound 8 µM)	relative viability (Sorafenib + Phenformin; first compound 0.08 µM)	relative viability (Sorafenib + Phenformin; first compound 0.253 µM)	relative viability (Sorafenib + Phenformin; first compound 2.53 µM)	relative viability (Sorafenib + Phenformin; first compound 8 µM)	relative viability (Sorafenib + Tozasertib; first compound 0.08 µM)	relative viability (Sorafenib + Tozasertib; first compound 0.253 µM)	relative viability (Sorafenib + Tozasertib; first compound 2.53 µM)	relative viability (Sorafenib + Tozasertib; first compound 8 µM)
NCI-H596	0.773	0.73	0.751	0.79	0.844	0.735	0.807	0.75	0.471	0.447	0.521	0.509	0.787	0.587	0.665	0.86	1.01	0.907	0.871	0.406
HCC-44	0.936	0.876	0.92	0.953	1.07	1.04	1.01	–	0.833	0.785	0.793	0.649	0.269	0.153	0.311	0.207	0.884	0.688	0.858	0.773
NCI-H2126	0.935	0.851	0.96	0.913	0.581	0.541	0.623	0.589	0.788	0.743	0.855	–	0.539	0.529	0.603	0.501	0.93	0.842	0.866	–
NCI-H322M	0.903	0.66	0.678	0.918	0.769	0.52	0.455	0.481	0.815	0.916	0.877	0.84	0.813	0.67	0.807	0.795	0.512	0.394	0.527	0.475
LCLC-97TM1	0.413	0.324	0.297	0.253	0.198	0.199	0.133	0.103	0.237	0.247	0.184	0.198	0.413	0.377	0.325	0.356	0.191	0.232	0.195	0.188
NCI-H1993	1.12	1.2	1.22	0.751	0.515	0.521	0.529	0.506	0.684	0.7	0.666	0.674	0.516	0.51	0.499	0.499	0.601	0.565	0.584	0.608
NCI-H1651	0.18	0.174	0.187	0.178	0.853	0.791	0.835	0.74	0.979	0.981	0.996	0.547	0.389	0.307	0.318	0.148	0.833	0.643	0.698	0.445
NCI-H358	0.551	0.491	0.368	0.375	0.14	0.143	0.116	0.107	1.06	1.12	0.934	0.337	0.442	0.392	0.468	0.146	0.112	0.0906	0.0966	0.073
NCI-H727	0.826	0.666	0.693	0.659	0.416	0.351	0.391	0.367	0.623	0.579	0.702	0.326	0.634	0.416	0.439	0.507	0.643	0.638	0.555	0.487
NCI-H2347	0.675	0.502	0.503	0.519	0.3	0.308	0.266	0.314	1.2	0.89	–	1	0.519	0.398	0.351	0.326	0.646	0.599	0.509	0.426
LU99A	0.244	0.234	0.244	0.237	0.509	0.404	0.252	0.263	0.58	0.435	0.468	0.453	0.978	0.864	0.748	0.408	0.305	0.278	0.247	0.26
NCI-H1975	0.936	0.779	0.669	0.353	0.526	0.32	0.291	0.242	0.643	0.789	0.77	0.323	0.462	0.403	0.429	0.341	0.873	0.704	0.643	0.162
NCI-H1734	0.609	0.541	0.563	0.601	0.71	0.646	0.577	0.324	0.685	0.654	0.633	0.568	0.459	0.362	0.411	0.236	0.266	0.224	0.249	0.212
CAL-12T	0.81	0.616	0.639	0.602	0.5	0.312	0.339	0.213	1.18	1.09	0.971	0.705	0.641	0.54	0.583	0.202	0.354	0.284	0.271	0.219
NCI-H647	0.568	0.524	0.356	0.0229	0.583	0.388	0.235	0.144	1.1	–	0.872	–	0.636	0.495	0.454	0.198	0.246	0.218	0.165	0.0549
NCI-H1793	1.05	0.836	0.84	0.661	0.398	0.429	0.325	0.253	–	0.727	1.01	0.511	0.453	0.329	0.418	0.293	0.467	0.374	0.242	0.182
